Here are results for four compounds from ChEMBL document CHEMBL1130464, “Analogues of trichosatin a and trapoxin B as histone deacetylase inhibitors” (Bioorg Med Chem Lett, 1997).

The structures appear in SMILES notation.

The target in assay [1] is T1, Histone deacetylase HD2 (Zea mays) (UniProt Q94F81).
T1 sequence (whole entry): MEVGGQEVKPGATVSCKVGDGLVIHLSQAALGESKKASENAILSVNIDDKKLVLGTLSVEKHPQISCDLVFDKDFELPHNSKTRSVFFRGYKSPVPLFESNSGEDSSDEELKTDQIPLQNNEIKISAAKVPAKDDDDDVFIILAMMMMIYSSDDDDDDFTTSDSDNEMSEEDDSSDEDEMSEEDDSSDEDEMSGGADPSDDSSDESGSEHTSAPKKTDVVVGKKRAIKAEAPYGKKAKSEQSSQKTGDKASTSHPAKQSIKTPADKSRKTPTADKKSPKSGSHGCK
Kind of assay: Inhibitory concentration against deacetylase HD2 enzyme of maize at 30 uM.

The target of assay [2] is T1, Histone deacetylase HD2 (Zea mays).

Broadly, the inhibition is the relative decrease from the control value, in per cent. Higher therefore signals a strong effect. For the compound `COC(=O)[C@H](Cc1ccccc1)NC(=O)CCCCCCC(=O)NO`, in assay [1], the inhibition is 76%.

Take `O=C(CCCCCCC(=O)N[C@@H](Cc1ccccc1)C(=O)O)NO`: the inhibition in assay [1] was 82%.

For orientation: IC90 means the concentration at which the effect reaches the 90% level. For the compound `CC(/C=C/C(=O)NO)=C\[C@@H](C)C(=O)c1ccc(N(C)C)cc1`, the concentration for an effect of 90% (IC90) in assay [2] came to 100 nM.

In assay [1], `CN(C)c1ccc(C(=O)NCCCCCC(=O)NO)cc1` gave an inhibition of 94%.
